From EP0536419B1, “TRICYCLIC TRIAZOLE DERIVATIVES, PRODUCTION AND USE THEREOF” (TORAY INDUSTRIES, INC., priority 1991, dated 1992)
Structures can show the parent of a compound that is named as a salt. Where two headings read alike, the source gives them in different places.

What was measured:
[1] = test system: PAF-induced Bronchial Hyperresponsiveness; assay: PAF-induced bronchial hyperresponsiveness model in guinea pigs; assay type: in vivo; conditions: oral, ratio of Ach threshold value after/before PAF inhalation
Description: The test was carried out using Hartley male guinea pigs having body weights of 300 - 400 g.
Guinea pigs were retained on body plethysmo boxes without anesthesia and the respiratory resistances (Rrs) were determined by osscilation method. […] The Ach threshold value which is required for the Rrs to reach 1.5 cm H2O/ml/sec was determined. […] The Ach threshold value means the value calculated taking the value when a guinea pig is made to inhale 1000 ug/ml of Ach aerosol for 1 minute as 1 unit. The above-described operation was carried out using Animal Ast (registered trademark) commercially available from Chest M. I. Co., Ltd.
By the method of A), the bronchial responsiveness of guinea pigs, that is, the Ach threshold values were determined. Subsequently, each animal was made to inhale aerosol of 100 µg/ml of PAF solution for 10 minutes. Forty minutes after the completion of the inhalation, the bronchial responsiveness was again measured by the method of A). The bronchial hyperresponsiveness was detected based on the ratio between the Ach threshold value before and after the inhalation of PAF (Ach respiration threshold value after inhalation of PAF/Ach respiration threshold value before inhalation of […]; Post/Pre value). That is, if the bronchial hyperresponsiveness is strongly promoted, the Post/Pre value is lower than 1.0, and if it is not promoted, the Post/Pre value is about 1.0. A suspension of a test compound in olive oil was orally administered to each guinea pig and the determined Post/Pre value was compared with that of the control group to which olive oil was administered to evaluate the inhibition effect. […]

[2] = test system: passive cutaneous anaphylaxis (PCA); assay: Test for antiallergic action: rat passive cutaneous anaphylaxis (PCA) reaction; assay type: in vivo; conditions: rats, oral, 50 mg/kg in olive oil, 1 hour before antigen challenge, read-out: Inhibition Rate (%) Anti-PCA
Description: The antiallergic action was evaluated by passive cutaneous anaphylaxis (PCA) test using rats. The test was carried out using Wister male rats having body weights of 150 - 200 g. Physiological saline containing anti-dinitrophenyl group (DNP) mouse IgE monoclonal antibody (commercially available from Seikagaku Kogyo Co., Ltd.) was intracutaneously injected in the skin of the back of each rat. Twenty three hours later, a suspension of the test compound in olive oil was orally administered at a dose of 50 mg/kg to each rat. One hour later, 0.5 ml of physiological saline containing 2 mg/ml of ovalbumin modified with dinitrophenyl hapten and 1% Evans blue were administered to each rat via femoral vein. Thirty minutes later, the rat was killed by cutting the carotid artery. The skin was peeled off and the portion stained in blue was cut out. The cut out portion was minced in […] and the pigment was extracted at 60°C for 48 hours. The minced skin was removed by centrifugation (1500 x g, 10 min.) and the absorbance at 620 nm of the supernatant was measured. Based on a preliminarily prepared calibration curve, the pigment leaked to the topical portion was quantified. As a control, olive oil alone was administered and the ratio of the amount of the pigment in test groups to the amount of the pigment in control group is expressed as inhibition rate.

PAF receptor = target: T1, PAF receptor (Oryctolagus cuniculus, UniProt G1TEI7); assay: Binding test using [3H]-PAF (PAF receptor binding test); set-up: species or system rabbit
T1 construct: Cell membrane fraction of rabbit platelets was prepared; from tissue; host or cells: rabbit platelets (cell membrane fraction)
Description: Binding Test Using [^3H]-PAF (PAF receptor binding test)
Cell membrane fraction of rabbit platelets was prepared in accordance with the method by Hwang et al (Biochemistry; 22; 4756, (1983)). In 10 mM Tris buffer containing 0.25% bovine serum albumin, 50 mg of this membrane fraction was suspended and tritium-labelled PAF [^3H]-PAF; 0.4 nM) and a test compound were added thereto. After incubating the resulting mixture at 25°C for 60 minutes, the mixture was subjected to filtration through a filter paper made of glass fibers. The filter paper was washed with cold Tris buffer three times and then transferred to a vial. A scintillator was added thereto and the dose of radioactivity was measured with a liquid scintillation counter. The inhibition rate (binding ability) of the test compound was calculated according to the following equation and IC50 values were determined by interpolation. Inhibition Rate (%) = {1 - [((A - B))/((C - B))]} x 100 [formula] (wherein A represents amount bound in the presence of the compound, B represents amount bound by non-specific binding which is the dose of [^3H]-PAF bound radioactivity in the presence of 1 µM of PAF, and C represents total amount bound which is the dose of [^3H]-PAF bound radioactivity.
As a control agent, WEB2086 (Japanese Laid-open Patent Application (Kokai) No. 65-176591) disclosed as a PAF-antagonist was used.

rabbit platelets = rabbit platelets (Oryctolagus cuniculus, UniProt G1TEI7); assay: in vitro platelet agglutination inhibition test (PAF-induced); assay type: cell-based; conditions: rabbit platelet-rich plasma, PAF final concentration 10 ng/ml, 37°C; read-out: PAF-Induced Platelet Aggregation IC50 (converted)
Description: To determine the PAF-antagonizing property of the compounds, the PAF-induced agglutination of rabbit platelets in vitro is utilized. To obtain platelet-rich plasma (PRP), venous blood is taken from rabbit auricular vein into a plastic centrifugal tube containing 1.0% sodium citrate solution. The ratio of sodium citrate solution to blood is 1:10. The obtained citrate-containing blood is centrifuged at 70 x g (625 rpm) at room temperature for 20 minutes and the PRP in the upper layer is transferred to another plastic tube. The remaining lower layer is further centrifuged at 1500 x g (2800 rpm) for 10 minutes and the platelet poor plasma (PPP) in the upper layer is recovered. The platelet agglutination is measured by using aggregometer commercially available from Niko Bioscience, Inc. An aliquote of the PRP is poured into a cubette for measurement. Immediately thereafter, aspirin, creatinin phosphate and creatinin phosphokinase are added to final concentrations of 0.1 mM, 7 mM and 45 U/ml, respectively. Then a solution of a test compound is added and the resulting mixture is stirred at 37°C for 2 minutes. To the resultant, PAF (final concentration: 10 ng/ml) is added to induce platelet aggregation. The platelet aggregation rate is calculated from the relative maximum value in each aggregation curve taking the transmittance of PPP as the maximum aggregation (100% aggregation). Using the aggregation rate when physiological saline was added as a control, the inhibition rate which was the ratio of the aggregation rate when the test compound was added to the control was calculated and the IC50 values were determined by interpolation.

histamine = assay: Histamine-antagonizing action: histamine-induced skin pigment leakage in rats; assay type: in vivo; conditions: Rattus norvegicus, oral, 50 mg/kg in olive oil, 1 hour before intracutaneous histamine (50 µl of 900 µM), read-out: Inhibition Rate (%) Antihistamine
Description: A suspension of a test compound in olive oil was orally administered at a dose of 50 mg/kg to each rat of the same kind as those used in 1. One hour later, physiological saline containing 1% Evans blue was intravenously administered at a dose of 3 ml/kg. Immediately thereafter, 50 µl of 900 µM histamine solution was intracutaneously administered to each rat. Thirty minutes later, the pigment in the blue-stained portion in the skin was extracted and quantified as mentioned above. Using the amount of the pigment when olive oil was administered as control, the inhibition rate which is the ratio of the amount of the pigment when the test compound was administered to the control was calculated.

[3] = rabbit platelet membrane fraction, [3H]-PAF 0.4 nM, 25°C, 60 minutes, read-out: Receptor Binding Inhibition IC50 (converted)

Sequence of rabbit platelets (G1TEI7 1-342): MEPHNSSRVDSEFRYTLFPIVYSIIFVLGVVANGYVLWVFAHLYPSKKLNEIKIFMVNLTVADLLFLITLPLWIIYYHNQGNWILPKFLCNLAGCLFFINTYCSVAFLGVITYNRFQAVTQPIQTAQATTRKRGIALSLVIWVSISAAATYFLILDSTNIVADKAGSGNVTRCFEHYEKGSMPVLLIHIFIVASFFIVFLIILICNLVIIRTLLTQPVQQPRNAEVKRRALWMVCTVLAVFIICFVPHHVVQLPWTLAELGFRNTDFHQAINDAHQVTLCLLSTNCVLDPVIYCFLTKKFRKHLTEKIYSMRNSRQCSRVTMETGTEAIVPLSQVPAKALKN
T1 sequence (G1TEI7 1-342): as above

Row | SMILES | inhibition at 50 mg/kg [2] | IC50 (PAF receptor; [3]) | IC50 (rabbit platelets) | inhibition at 50 mg/kg (histamine) | also measured
1 | Cc1nnc2n(CCCN3CCC(c4c[nH]c5ccccc45)CC3)c3ccccc3n12.O=C(O)/C=C/C(=O)O [Compound 192, 3-methyl-9-[3-[4-(3-indolyl)piperidin-1-yl]propyl]-9H-[1,2,4]triazolo[4,3-a]benzimidazole fumaric acid salt] | 74% | 1310 nM |  |  | Post/Pre ([1]; Dose 1 mg/kg): 1.81
2 | Cc1nnc2n(CCCN3CCC(C(O)(c4ccc(F)cc4)c4ccc(F)cc4)CC3)c3ccccc3n12 [Compound 199, 3-methyl-9-[3-[4-[hydroxybis(4-fluorophenyl)methyl]piperidin-1-yl]propyl]-9H-[1,2,4]triazolo[4,3-a]benzimidazole fumaric acid salt] | 48% | 55.4 nM | 190 nM |  | 
3 | Cc1nnc2n1-c1ccccc1N(CCCN1CCC(C(O)(c3ccc(F)cc3)c3ccc(F)cc3)CC1)C2 [Compound 75, 4,5-dihydro-1-methyl-5-[3-[4-[hydroxybis(4-fluorophenyl)methyl]piperidin-1-yl]propyl][1,2,4]triazolo[4,3-a] quinoxaline tartaric acid salt] | 42% | 603 nM | 309 nM | 19% | 
4 | Cc1nnc2c(=O)n(CCCN3CCC(=C(c4ccccc4)c4ccccc4)CC3)c3ccccc3n12 [Compound 4, 4,5-dihydro-1-methyl-5-[3-[4-(diphenylmethylene)piperidin-1-yl]propyl][1,2,4]triazolo[4,3-a] quinoxalin-4(5H)-one] | 44% | 2040 nM | 4080 nM | 76% | 
5 | Cc1nnc2n(CCCN3CCN(C(c4ccccc4)c4ccccc4)CC3)c3ccccc3n12 [Compound 189, 3-methyl-9-[3-[4-(diphenylmethyl)piperazin-1-yl]propyl]-9H-[1,2,4]triazolo[4,3-a]benzimidazole dihydrochloride] | 43% | 260 nM | 577 nM | 57% | 
6 | Cc1nnc2n1-c1ccccc1N(CCCN1CCN(C(c3ccc(F)cc3)c3ccc(F)cc3)CC1)C2 [Compound 45, 4,5-dihydro-1-methyl-5-[3-[4-[bis(4-fluorophenyl)methyl]piperazin-1-yl]propyl] [1,2,4]triazolo[4,3-a]quinoxaline] | 49% | 622 nM |  | 43% | 
7 | Cc1nnc2n1-c1ccccc1N(CCCN1CCC(c3c[nH]c4ccccc34)CC1)C2 [Compound 49, 4,5-dihydro-1-methyl-5-[3-[4-(3-indolyl)piperidine-1-yl]propyl] [1,2,4]triazolo[4,3-a]quinoxaline] | 58% | 3990 nM |  | 65% | 
8 | Cc1nnc2n1-c1ccccc1N(CCCN1CCC(Nc3nc4ccccc4n3Cc3ccc(F)cc3)CC1)C2 [Compound 73, 4,5-dihydro-1-methyl-5-[3-[4-[1-(4-fluorobenzyl)benzimidazol-2-ylamino]-piperidin-1-yl]propyl][1,2,4]triazolo[4,3-a] quinoxaline] |  | 5630 nM | 8170 nM |  | Post/Pre ([1]; Dose 1 mg/kg): 1.18
9 | Cc1nnc2n1-c1ccccc1N(CCCN1CCC(=C(c3ccc(F)cc3)c3ccc(F)cc3)CC1)C2 [Compound 77, 4,5-dihydro-1-methyl-5-[3-[4-[bis(4-fluorophenyl)methylene]piperidin-1-yl]propyl][1,2,4]triazolo[4,3-a] quinoxaline] |  | 190 nM | 141 nM |  | 
10 | Cc1nnc2n1-c1sc(CCC(=O)N3CCOCC3)cc1C(c1ccccc1Cl)=NC2 [WEB2086, reference compound] |  |  |  |  | Post/Pre ([1]; Dose 3 mg/kg): 0.89; IC50 (PAF receptor): 110 nM
11 | COc1cccc(C(=C2CCN(CCCN3Cc4nnc(C)n4-c4ccccc43)CC2)c2cccc(OC)c2)c1 [Compound 143, 4,5-dihydro-1-methyl-5-[3-[4-[bis(3-methoxyphenyl)methylene]piperidin-1-yl]propyl] [1,2,4]triazolo[4,3,a]quinoxaline] |  | 74.7 nM | 411 nM |  | 
12 | Cc1nnc2n1-c1ccccc1N(CCCN1CCC(=C(c3ccccc3)c3ccccc3)CC1)C2 [Compound 46, 4,5-dihydro-1-methyl-5-[3-[4-(diphenylmethylene)piperidin-1-yl]propyl] [1,2,4]triazolo[4,3-a]quinoxaline] | 65% | 378 nM |  | 72% | Post/Pre ([1]; Dose 0.1 mg/kg): 1.14; Post/Pre ([1]; Dose 0.3 mg/kg): 1.64
13 | Cc1nnc2n1-c1ccccc1N(CCCN1CCC(=C3c4ccccc4CCc4ccccc43)CC1)C2 [Compound 87, 4,5-dihydro-1-methyl-5-[3-[4-(10,11-dihydro-5H-dibenzo[a,d]cyclohepten-5-ylidene)piperidin-1-yl]propyl][1,2,4]triazolo[4,3-a] quinoxaline] |  | 199 nM | 6180 nM |  | 
14 | Cc1nnc2n1-c1ccccc1N(CCCN1CCC(=C3c4ccccc4C=Cc4ccccc43)CC1)C2 [Compound 78, 4,5-dihydro-1-methyl-5-[3-[4-(5H-dibenzo[a,d]cyclohepten-5-ylidene)piperidin-1-yl]propyl][1,2,4]triazolo[4,3-a] quinoxaline] |  | 118 nM | 4800 nM |  | 
15 | Cc1cccc(C(=C2CCN(CCCN3Cc4nnc(C)n4-c4ccccc43)CC2)c2ccccc2)c1 [Compound 160, 4,5-dihydro-1-methyl-5-[3-[4-[phenyl(3-tolyl)methylene]piperidin-1-yl]propyl] [1,2,4]triazolo[4,3,a]quinoxaline] |  | 198 nM | 145 nM |  | 
16 | Cc1nnc2n1-c1ccccc1N(CCCN1CCN(C(c3ccccc3)c3ccc(Cl)cc3)CC1)CC2 (stereo not drawn) [Compound 214, 5,6-dihydro-1-methyl-6-[3-[4-[(4-chlorophenyl)phenylmethyl]piperazin-1-yl]propyl]-4H[1,2,4]triazolo[4,3-a][1,5]benzodiazepine fumaric acid salt] | 75% |  | 6220 nM |  | 
17 | Cc1cccc(C(O)(c2cccc(C)c2)C2CCN(CCCN3Cc4nnc(C)n4-c4ccccc43)CC2)c1 [Compound 134, 4,5-dihydro-1-methyl-5-[3-[4-[hydroxybis(3-tolyl)methyl]piperidin-1-yl]propyl][1,2,4]triazolo[4,3-a]quinoxaline] |  | 9.58 nM | 97.8 nM |  | 
18 | COc1ccc(C(O)(c2ccc(OC)c(OC)c2)C2CCN(CCCN3Cc4nnc(C)n4-c4ccccc43)CC2)cc1OC [Compound 138, 4,5-dihydro-1-methyl-5-[3-[4-[hydroxybis(3,4-dimethoxyphenyl)methyl]piperidin-1-yl]propyl] [1,2,4]triazolo[4,3-a]quinoxaline] |  | 1170 nM | 1320 nM |  | 
19 | Cc1nnc2n1-c1ccccc1N(CCCN1CCC(=C3c4ccccc4COc4ccccc43)CC1)C2 [Compound 88, 4,5-dihydro-1-methyl-5-[3-[4-(6,11-dihydrodibenzo[b.e]oxepin-11-ylidene)piperidin-1-yl]propyl][1,2,4]triazolo[4,3-a] quinoxaline] |  | 675 nM | 1710 nM |  | 
20 | Cc1nnc2n1-c1ccccc1N(CCCN1CCC(C(O)(c3ccccc3)c3ccc(N(C)C)cc3)CC1)C2 (stereo not drawn) [Compound 131] |  | 83.8 nM | 242 nM |  | 
